From PubChem BioAssay (NCI)
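How tested: cells in 96-well plates exposed to compound for 48 hours at five concentrations. TGI marks complete inhibition of growth.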

Legend:
Test in all cases: NCI-60 cell line screen, 48 h
786-0 renal = tested on: 786-0 renal
HS 578T breast = tested on: HS 578T breast
IGROV1 ovarian = tested on: IGROV1 ovarian
LOX IMVI melanoma = tested on: LOX IMVI melanoma
MCF7 breast = tested on: MCF7 breast
OVCAR-8 ovarian = tested on: OVCAR-8 ovarian
SF-295 CNS = tested on: SF-295 CNS
SK-MEL-28 melanoma = tested on: SK-MEL-28 melanoma
SNB-19 CNS = tested on: SNB-19 CNS
U251 CNS = tested on: U251 CNS

| Compound | TGI (786-0 renal) [µM] | TGI (HS 578T breast) [µM] | TGI (IGROV1 ovarian) [µM] | TGI (LOX IMVI melanoma) [µM] | TGI (MCF7 breast) [µM] | TGI (OVCAR-8 ovarian) [µM] | TGI (SF-295 CNS) [µM] | TGI (SK-MEL-28 melanoma) [µM] | TGI (SNB-19 CNS) [µM] | TGI (U251 CNS) [µM] |
| --- | --- | --- | --- | --- | --- | --- | --- | --- | --- | --- |
| CCCOC(=O)NC(C)C(=O)NC(CCC(=O)NC(CCCC(N)C(=O)O)C(=O)NC(C)C(=O)O)C(=O)O (stereo not given) | > 100 | 40.5 | > 100 | 30.1 | > 100 | 33.9 | 30.9 | 44.9 | 71 | 55.9 |
| COc1cc2c(cc1OC)C13CC[N+]4(C)CC5=CCOC6CC(=O)N2C1C6C5CC34[O-] (stereo not given) | > 100 | > 100 | > 100 | > 100 | > 100 | > 100 | > 100 | > 100 | > 100 | > 100 |
| CC1=C[C@@H](C)C[C@]2(C)CC[C@H](O2)[C@]23CC[C@](C(=O)O)(C[C@H](O2)[C@@H]2O[C@@](C)(CC2=O)[C@@H](O)[C@H]2CC[C@@]4(CCC[C@@H](O4)[C@H](C)C(=O)O[C@H]4C[C@H]([C@]5(O)OCC[C@H](C)[C@@H]5O)O[C@H]4C=C1)O2)O3 | > 10 | > 5.94 | > 10 | > 10 | > 10 | > 10 | > 10 | > 10 | > 10 | > 10 |
| COc1cc(OCc2ccc3nc(OC)c(OC)nc3c2)cc(OC)c1OC | > 10 | > 10 | > 10 | > 10 | > 10 | > 10 | > 10 | > 10 | > 10 | > 10 |
| COc1c(O)c(O)cc2c1-c1ccc(OC)c(=O)cc1C(NC(C)=O)CC2 (stereo not given) | 74.8 | > 24.9 | > 100 | 20.6 | 11.9 | 62.2 | 20.5 | > 100 | > 100 | 28.9 |
| N#CCCN(CCC#N)c1ccc(/C=C2\SC(=S)NC2=O)cc1Br | > 100 | 27.1 | > 100 | 80.7 | > 100 | > 100 | > 100 | > 100 | 56.3 | 35.1 |
| CC(C)CCn1nc(N)c2nc3ccccc3nc21 | > 100 | > 100 | > 100 | > 100 | > 100 | > 100 | > 100 | > 100 | > 100 | > 100 |
| CCCCC/C(C=O)=C\c1ccccc1 | > 100 | > 100 | > 100 | > 100 | > 100 | > 100 | > 100 | > 100 | > 100 | > 100 |
| O=C1CS(=O)C23c4cc5ccccc5n4CCC2CCCN13 (stereo not given) | > 100 | > 100 | > 100 | > 100 | > 100 | > 100 | > 100 | > 100 | > 100 | > 100 |
| CC(C)(C)C(=O)C(Cc1ccccc1)C(=O)C(C)(C)C | > 100 | > 100 | > 100 | > 100 | > 100 | > 100 | > 100 | > 100 | > 100 | > 100 |
| O=C1CCc2ccc3c(c21)CC1(Cc2ccccc2C1)C3 | 48.1 | > 100 | > 100 | 20.1 | > 100 | > 100 | 38 | 88.9 | > 100 | 74 |
| COc1cc(C=C2C(=O)NC(=S)NC2=O)cc(OC)c1OC | > 100 | > 100 | > 100 | > 100 | > 100 | > 100 | > 100 | > 100 | > 100 | > 100 |
| COc1cc(CC(C)N)ccc1O (stereo not given) | > 100 | > 100 | > 100 | > 100 | > 100 | > 100 | > 100 | > 100 | > 100 | > 100 |
| CCN(CC)CCNc1ccc2ncn3c4cc(OC)c(OC)c(=O)c4c(O)c1c23 | 26.4 | 29.1 | 35.6 | 2.74 | 15.2 | 27.9 | 23.6 | 27.5 | 22.6 | 28 |
| O=C(O)c1c2c(cc3c1CC1(Cc4ccccc4C1=O)C3)CCC2 (stereo not given) | > 100 | > 100 | > 100 | > 89.1 | > 100 | > 100 | > 100 | > 100 | > 100 | > 100 |
| NS(=O)(=O)c1ccc(NC(NC(=O)C(C(F)(F)F)C(F)(F)F)(C(F)(F)F)C(F)(F)F)cc1 | > 100 | > 100 | > 100 | > 100 | > 100 | > 100 | > 100 | > 100 | > 100 | > 100 |
| N#CC(=N)c1ncn(-c2ccccc2N)c1N | > 100 | > 100 | > 100 | > 100 | > 100 | > 100 | > 100 | > 100 | > 100 | > 100 |
| CC1=CC(=O)CC2(C)CCC(C(C)CC(=O)CC(C)C)CC12 (stereo not given) | 31 | > 100 | 72.5 | 34.8 | 66.8 | 53.2 | > 100 | 72.9 | > 100 | > 100 |
